Data published in patent publication EP0595183B1, “Hydantoin derivatives, salts thereof and maillard reaction inhibitors comprising the same” (SANWA KAGAKU KENKYUSHO CO., LTD., priority 1992, dated 1994).

How the values were obtained:
[1] = Acute toxicity by oral administration; conditions: in vivo
From the text: (§1) Acute and 4 week subacute toxicities of exemplar compounds according to the invention were checked by oral administration thereof and using rats.

rats = test: 4 week subacute toxicity by oral administration; type: in vivo; conditions: rat (male)
From the text: as §1

BSA = test: Inhibition of cross-linking of proteins (SDS-PAGE), BSA with fructose; type: biochemical; conditions: Protein BSA 10mg/ml, compound 5mM, fructose 400mM, pH 7.4, 37°C for 7 days
Method: (§2) A testing or control compound (5mM), fructose (400mM) and a protein of either BSA (10mg/ml) or lysozyme (10mg/ml) were dissolved in 0.5M Na-phosphate buffer (pH 7.4). The mixture was incubated at 37°C for 7 days At the end of the reaction period, sodium dodecyl sulfonate-polyacrylamide gel electrophoresis (SDS-PAGE) was carried out with using aliquots of the reaction mixture. Protein band was stained with Coomassie brilliant blue and protein content of each band was determined with a SHIMAZU UV-265 scanmeter.
(§3) The inhibition ratio of cross-linking of proteins was estimated with the following equation. Inhibition ratio (%) = [(A - B)/A] x 100 [formula] wherein, A : degree of cross-link formation (containing no compound), and B : degree of cross-link formation (containing the compound).

lysozyme = test: Inhibition of cross-linking of proteins (SDS-PAGE), lysozyme with fructose; type: biochemical; conditions: Protein Lysozyme 10mg/ml, compound 5mM, fructose 400mM, pH 7.4, 37°C for 7 days
Method: as §2, §3

[2] = tested on: bovine serum albumin (BSA); test: Inhibition of fluorescence development (Maillard reaction products) in BSA/fructose incubation; type: biochemical; conditions: compound 5mM, BSA 10mg/ml, fructose 400mM, pH 7.4, 20% DMSO, 37°C for 24 hours; fluorescence ex 350nm / em 428nm
Method: A testing or control compound (5mM), bovine serum albumin (BSA, 10mg/ml) and fructose (400mM) were dissolved in […] Na-phosphate buffer (pH 7.4) containing 20% DMSO. The mixture was incubated at 37°C for 24 hours.
The incubated mixture was diluted to 10 folds in volume with distilled water and measured fluorescense intensity at excitation wavelength of 350nm and emission wavelength of 428nm with a HITACHI F-4010 spectrofluorometer. The inhibition ratio of fluorescense development was estimated with the following equation. Inhibition (%) = {[F1-F3-F4)- (F2-F3-F4)]/(F1-F3-F4)} x 100 [formula] wherein, Inhibition : Inhibition ratio, F1 : Fluorescense intensity of the solution containing no compound, F2 : Fluorescense intensity of the solution containing the compound, F3 : Fluorescense intensity of the solution containing only BSA, and F4 : Fluorescense intensity of the solution containing only fructose.

Row | Compound | LD50 ([1]; rat (female)) [mg/kg] | LD50 ([1]; rat (male)) [mg/kg] | Non-toxic dose (rats) [mg/kg] | Inhibition ratio (%) (BSA) | Inhibition ratio (%) (lysozyme) | Inhibition ratio (%) [2] [%]
1 | N=C(N)NN [Aminoguanidine, reference compound] | 1300 | 1900 | 30 | 70.7 | 59.3 | 86.9
2 | NNC(=O)[C@H]1C[C@@]2(NC(=O)NC2=O)c2cc(F)ccc2O1 [Example 1, (2R,4R)-6-Fluoro-2',5'-dioxospiro[chroman-4,4'-imidazolidine]-2-carbohydrazide] | > 4000 | > 4000 | – | – | – | 87.3
3 | NNC(=O)[C@H]1C[C@]2(NC(=O)NC2=O)c2cc(F)ccc2O1 [Example 2, (2R,4S)-6-Fluoro-2',5'-dioxospiro[chroman-4,4'-imidazolidine]-2-carbohydrazide] | – | – | – | – | – | 88.6
4 | NNC(=O)[C@@H]1C[C@@]2(NC(=O)NC2=O)c2cc(F)ccc2O1 [Example 3, (2S,4R)-6-Fluoro-2',5'-dioxospiro[chroman-4,4'-imidazolidine]-2-carbohydrazide] | – | – | – | – | – | 88.1
5 | O=C1NC(=O)[C@@]2(C[C@@H](C(=O)NNC(=O)C(F)(F)F)Oc3ccc(F)cc32)N1 [Example 7, (2S, 4S)-6-Fluoro-2',5'-dioxo-N'-trifluoroacetylspiro[chroman-4,4'-imidazolidine]-2-carbohydrazide] | – | – | – | – | – | 21.3
6 | NNC(=O)[C@@H]1C[C@]2(NC(=O)N(N)C2=O)c2cc(F)ccc2O1 [Example 9, (2S,4S)-1'-Amino-6-fluoro-2',5'-dioxospiro[chroman-4,4'-imidazolidine]-2-carbohydrazide] | – | – | – | – | – | 86.6
7 | NC(=O)[C@@H]1C[C@]2(NC(=O)N(N)C2=O)c2cc(F)ccc2O1 [Example 10, (2S,4S)-1'-Ainino-6-fluoro-2',5'-dioxospiro[chroman-4,4'-imidazolidine]-2-carboxamide] | – | – | – | – | – | 19.7
8 | NNC(=O)[C@@H]1C[C@]2(NC(=O)NC2=O)c2cc(F)ccc2O1 [Reference Example 2, (2S,4S)-6 -Fluoro-2',5'-dioxospiro[chroman-4,4'-imidazolidine]-2-carbohydrazide] | > 4000 | > 4000 | > 2000 | 88.7 | 67.4 | 88.7
9 | CNNC(=O)[C@@H]1C[C@]2(NC(=O)NC2=O)c2cc(F)ccc2O1 [Reference Example 3, (2S,4S)-6-Fluoro-N'-methyl-2',5'-dioxospiro[chroman-4,4'-imidazolidine]-2-carbohydrazide] | – | – | – | – | – | 41.6
10 | O=C1NC(=O)[C@@]2(C[C@@H](C(=O)NNc3ccccc3)Oc3ccc(F)cc32)N1 [Reference Example 4, (2S,4S)-6-Fluoro-2',5'-dioxo-N'-phenylspiro[chroman-4,4'-imidazolidine]-2-carbohydrazide] | – | – | – | – | – | 17.8
